This passage reports IC50 results from publication PMC11375437, “Selective labelling of GBA2 in cells with fluorescent β-D-arabinofuranosyl cyclitol aziridines” (Chemical Science, 2024).

The test deals with T1, GBA2 (Homo sapiens, UniProt Q9HCG7).
T1 sequence (Q9HCG7 1-927): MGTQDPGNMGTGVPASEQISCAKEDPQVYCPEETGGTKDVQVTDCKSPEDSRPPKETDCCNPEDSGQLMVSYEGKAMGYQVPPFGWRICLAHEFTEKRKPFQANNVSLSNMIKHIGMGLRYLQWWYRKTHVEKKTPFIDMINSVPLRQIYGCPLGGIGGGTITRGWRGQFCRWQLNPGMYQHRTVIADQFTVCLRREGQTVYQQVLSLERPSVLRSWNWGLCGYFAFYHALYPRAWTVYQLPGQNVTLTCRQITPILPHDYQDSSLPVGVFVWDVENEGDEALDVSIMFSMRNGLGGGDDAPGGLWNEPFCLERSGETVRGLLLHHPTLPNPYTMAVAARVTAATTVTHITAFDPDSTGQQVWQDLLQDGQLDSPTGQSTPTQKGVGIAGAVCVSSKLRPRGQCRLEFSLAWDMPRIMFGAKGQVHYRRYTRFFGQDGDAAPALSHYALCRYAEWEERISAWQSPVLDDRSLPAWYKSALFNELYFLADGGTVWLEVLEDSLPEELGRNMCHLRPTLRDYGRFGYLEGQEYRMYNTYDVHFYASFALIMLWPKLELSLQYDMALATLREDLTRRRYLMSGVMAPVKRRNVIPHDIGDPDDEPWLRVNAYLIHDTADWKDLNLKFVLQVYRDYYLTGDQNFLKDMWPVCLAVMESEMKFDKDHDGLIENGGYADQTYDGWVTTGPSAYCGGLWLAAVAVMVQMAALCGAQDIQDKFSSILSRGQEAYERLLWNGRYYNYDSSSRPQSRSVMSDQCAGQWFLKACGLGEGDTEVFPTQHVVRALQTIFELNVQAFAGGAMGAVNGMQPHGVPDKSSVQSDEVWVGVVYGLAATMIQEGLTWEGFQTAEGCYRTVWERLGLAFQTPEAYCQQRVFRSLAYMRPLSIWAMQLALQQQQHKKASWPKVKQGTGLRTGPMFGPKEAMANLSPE
In words: 4MU fluorogenic substrate assay for apparent IC50, GBA2. The test is classed as biochemical. More on the design: expressed in transfected cells; host or cells: HEK293T GBA1/GBA2 KO (CRISPR/Cas9), GBA2 overexpressed. Particulars: 4MU-β-D-Glc. An excerpt:
To identify an ABP that selectively labels human GBA2 over GBA1 and GBA3, a library of cyclophellitol-based ABPs with varying configurations (ESI Fig. S1 ^†) was screened for their selectivity towards human retaining β-glucosidases. For this purpose, we initially assessed the inhibition properties of the compounds using recombinant human GBA1 (rhGBA1, imiglucerase), lysates of cells overexpressing GBA2 or GBA3 (both in combination with knockout of the other retaining β-glucosidases). In a preliminary screen, enzymes were pre-incubated for 30 min with the tested compounds, followed by the addition of the fluorogenic substrate, 4MU-β-D-Glc, and subsequent quantification of released fluorescent 4MU after 30 minutes. This screening brought our attention to a new set of β-D-Araf cyclitol aziridines as potential GBA2 inhibitors. […] On the other hand, the biotin-tagged β-D-Araf compound 6 is a poor inhibitor of all three glucosidases (apparent IC50 > 8 μM). Arabinofuranosyl cyclitol 12–20 with various configurations (α-L-Araf and β-L-Araf) were also evaluated (ESI Fig. S1 ^†).
Recombinant human GBA1 (rhGBA1, Imiglucerase) was kindly provided by Sanofi Genzyme (Cambridge, MA, USA). 4-Methylumbelliferyl-β-D-glucopyranoside substrates were purchase from Glycosynth (Warrington Cheshire, UK). Protein concentration was measured using the Pierce BCA assay kit (Thermo Fisher Scientific, Waltham, MA, USA). Harvested cells (cell pellets), cell lysates and tissue homogenates not used directly were stored at -80 °C.
HEK293T (CRL‐3216™) cells were purchased from ATCC (Manassas, VA, USA). HEK293T cells were cultured in DMEM medium (Sigma‐Aldrich), supplied with 10% (v/v) FCS, 0.1% (w/v) penicillin/streptomycin and 1% (v/v) Glutamax, under 37 °C and 5% or 7% CO2. […]
2.3 Generation of cells genetically modified for β-glucosidase expression For overexpression of the different β-glucosidases, "wildtype" HEK293T cells, HEK293T cells with GBA2 knockout (KO) or HEK293T cells with both GBA1 and GBA2 KO were used, following by the overexpression (OE) of targeted β-glucosidases using the constructs as described in references.1,2 Either GBA2 or GBA3 were overexpressed in GBA1/GBA2 KO HEK293T (generated by the CRISPR/Cas9 method2) to generate GBA1/2 KOs with GBA2 (or GBA3) for overexpression in HEK293T cells as indicated, or using "wildtype" HEK293T cells containing endogenous GBA1 and GBA2 to overexpress both GBA2 and GBA3, these were generated as described in our previous report.1,2 […]
Cells were cultured with the method described above to 80-90% confluency, and were isolated, washed with Dulbecco′s phosphate buffered saline (PBS) and subsequently collected using the following method.3 HEK293T and RPE-1 cells were easily detached from the culture plate by trypsin treatment after which some DMEM medium was added. The cells were collected by pipetting and DMEM medium was removed by centrifuging. The cells were washed with cold PBS three times, after which they were centrifuged to remove PBS and then stored at –80 °C for further use or lysed in potassium phosphate buffer (K2HPO4-KH2PO4, 25 mM, pH 6.5, supplemented with 0.1% (v/v) Triton X-100 and protease inhibitor cocktail (EDTA-free, Roche, Basel, Switzerland)) by sonication with a Polytron PT 1300D sonicator (Kinematica, Luzern, Switzerland). After sonication, lysed mixtures were centrifuged at 10,000 x g for 3 min at 4°C, and the supernatants where desired β-glucosidases exist were used for the experiment.
2.5 4MU fluorogenic substrate assay for apparent IC50 determination
4MU fluorogenic substrate assays (using recombination human rhGBA1 or lysates of HEK293T cells) were conducted in 96-well plates at 37 °C. Samples were diluted with McIlvaine buffer (150 mM citric acid-Na2HPO4) to a final volume of 25 μL, at the appropriate pH for each enzyme. Assays were performed by incubating the samples with 100 μL 4-methylumbelliferyl-β-D-glucopyranoside substrate diluted in McIlvaine buffer for a period of 30 min. […]

Where [1] appears, read: Apparent IC50 GBA2, GBA1/GBA2 KO GBA2 OE HEK293T cell lysate, 30 min pre-incubation, pH 5.8, n = 3 for β-D-Araf, n = 1 for α-L-Araf and β-L-Araf.
The mark [2] stands for this setting: GBA1/GBA2 KO GBA2 OE HEK293T cell lysate, 30 min pre-incubation, pH 5.8, n = 3 for β-D-Araf, n = 1 for α-L-Araf and β-L-Araf, read-out: Apparent IC50 GBA2.

As a reminder, the IC50 is the concentration that gives 50% inhibition.

Several values for one entry are separate records, joined by “and”; a condition that tells them apart may be missing. Equal entries are not always repeated. Where two headings read alike, the source gives them in different places.

On to `CC1=CC(C)=[N+]2C1=C(CCCCc1cn(CCCCCCCCN3[C@@H]4[C@H](CO)[C@@H](O)[C@H](O)[C@@H]43)nn1)c1c(C)cc(C)n1[B-]2(F)F` (some centres unmarked) [ABP 3], for which, under setting [1], the IC50 is 120 to 160 nM and 124 nM. The same measure, in the same setting: as for `COc1ccc(C2=[N+]3C(=C(CCCCc4cn(CCCCCCCCN5[C@@H]6[C@H](CO)[C@@H](O)[C@H](O)[C@@H]65)nn4)c4ccc(-c5ccc(OC)cc5)n4[B-]3(F)F)C=C2)cc1` (some centres unmarked) [ABP 4], the figure is 120 to 160 nM and 162 nM. Still for that read-out and setting: then `CN1/C(=C/C=C/C=C/C2=[N+](CCCCCC(=O)NCc3cn(CCCCCCCCN4[C@@H]5[C@H](CO)[C@@H](O)[C@H](O)[C@@H]54)nn3)c3ccccc3C2(C)C)C(C)(C)c2ccccc21` (some centres unmarked) [ABP 5], with 250 to 300 nM and 264 nM.

For the compound `O=C(CCCC[C@@H]1SC[C@@H]2NC(=O)N[C@@H]21)NCc1cn(CCCCCCCCN2[C@@H]3[C@H](CO)[C@@H](O)[C@H](O)[C@@H]32)nn1` (some centres unmarked) [ABP 6], the IC50 (Apparent IC50 GBA2, 30 min pre-incubation) is greater than 8000 nM and the IC50 under setting [1] came out at 8480 ± 763 nM. In the case of `OC[C@@H]1[C@@H](O)[C@H](O)[C@@H]2N[C@H]12` [Compound 1, β-D-Arabinofuranosyl cyclitol aziridine], the half-maximal inhibitory concentration (IC50) is greater than 50000 nM (30 min pre-incubation, read-out: Apparent IC50 GBA2) and greater than 50000 nM under setting [2]. `[N-]=[N+]=NCCCCCCCCN1[C@@H]2[C@H](CO)[C@@H](O)[C@H](O)[C@@H]21` (stereo partly drawn) [Compound 2, β-D-arabinofuranosyl cyclitol aziridine-azidooctyl]: the IC50 under setting [2] came to 630 nM.
